Results reported in ChEMBL document CHEMBL1201862, “PubChem BioAssay data set” (2004).
Active and inactive are the calls of the source.

Tests used:
HEK293 [1] = assay: cells; assay type: functional, cell-based; conditions: Homo sapiens
HEK293 [2] = assay: cells; assay type: functional, cell-based; conditions: Homo sapiens; remark: listed apart in the source
HEK293 [3] = assay: inhibition of NOD1-driven NF-kB reporter – cell-based, luminescence, uHTS, primary screen (AID 1578); assay type: functional; conditions: Homo sapiens
HEK293 [4] = assay: cells; conditions: Homo sapiens
[5] = target: T1, Nucleotide-binding oligomerization domain-containing protein 2 (Homo sapiens, UniProt Q9HC29); assay: inhibition of NOD2-driven NF-kB reporter – cell-based, luminescence, uHTS, HEK293 (AID 1566); assay type: functional
[6] = target: Nucleotide-binding oligomerization domain-containing protein 1 (Homo sapiens, UniProt Q9Y239); assay: blockers of NOD1 pathway activity – revised, SAR follow-up (AID 2333); assay type: functional
HEK293 [7] = assay: cells; assay type: functional, cell-based; conditions: Homo sapiens; remark: listed apart in the source
[8] = target: T1, Nucleotide-binding oligomerization domain-containing protein 2; assay: PubChem AID 2334; assay type: functional
Tumor necrosis factor = Tumor necrosis factor (Homo sapiens, UniProt P01375); assay: analog potency on TNFa NF-kB signaling – cell-based, revised, SAR follow-up (AID 2337); assay type: functional
HEK293 [9] = assay: NOD2 signaling inhibitors in MDP-stimulated cells, cell-based, uHTS, luminescence (AID 2001); assay type: functional; conditions: Homo sapiens
Streptokinase A = target: T2, Streptokinase A (Streptococcus pyogenes serotype M1, UniProt P10520); assay: viability-normalized secreted streptokinase activity reduction – plasminogen activation absorbance, OD405, dose response (AID 1914); assay type: functional, Streptococcus pyogenes M1 GAS;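 further: secreted streptokinase activity via plasminogen activation per viability signal from cell pellet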
T2 sequence (P10520 whole entry): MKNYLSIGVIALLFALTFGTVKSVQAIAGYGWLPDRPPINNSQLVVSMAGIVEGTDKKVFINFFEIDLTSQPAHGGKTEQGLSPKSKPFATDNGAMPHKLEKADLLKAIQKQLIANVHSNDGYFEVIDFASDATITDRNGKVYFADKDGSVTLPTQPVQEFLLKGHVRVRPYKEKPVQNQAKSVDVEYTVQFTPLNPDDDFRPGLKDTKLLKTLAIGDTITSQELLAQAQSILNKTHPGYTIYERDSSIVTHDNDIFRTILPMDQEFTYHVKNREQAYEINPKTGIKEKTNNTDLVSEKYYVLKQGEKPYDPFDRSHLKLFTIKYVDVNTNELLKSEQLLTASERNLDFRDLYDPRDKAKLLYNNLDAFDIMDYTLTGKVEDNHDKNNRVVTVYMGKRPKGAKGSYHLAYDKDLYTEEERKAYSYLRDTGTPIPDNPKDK

[10] = target: T3, E3 ubiquitin-protein ligase XIAP (Homo sapiens, UniProt P98170); assay: small molecules displacing peptide from XIAP – biochemical, IAP family, fluorescence polarization (AID 1018); assay type: functional
[11] = target: T4, Carboxy-terminal domain RNA polymerase II polypeptide A small phosphatase 1 (Homo sapiens, UniProt Q9GZU7); assay: CTDSP1 inhibitors, concentration-response, biochemical, absorbance readout, ultra-high-throughput screen actives (AID 540297); assay type: functional
T4 sequence (Q9GZU7 whole entry): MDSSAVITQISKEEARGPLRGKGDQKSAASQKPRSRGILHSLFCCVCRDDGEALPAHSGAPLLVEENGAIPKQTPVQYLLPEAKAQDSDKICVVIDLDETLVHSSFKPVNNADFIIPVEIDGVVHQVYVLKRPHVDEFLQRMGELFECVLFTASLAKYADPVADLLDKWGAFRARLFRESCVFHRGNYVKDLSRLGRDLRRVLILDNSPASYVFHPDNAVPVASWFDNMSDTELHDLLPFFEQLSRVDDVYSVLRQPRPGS

[12] = target: T3, E3 ubiquitin-protein ligase XIAP; assay: Counter Screen using XIAP-Bir3 for Chemical Antagonists of Bir1/2 domains of IAP-family anti-apoptotic proteins. [Related pubchem assays (depositor defined):AID1018, AID1449, AID1514, AID1638, AID1749, AID1750, AID488957, AID488963]
Streptococcus = assay: GAS UMAA2166 growth inhibition – luminescence, BacTiterGlo, counter-screen for streptokinase expression inhibitor project, dose response (AID 1915); assay type: functional, organism-based;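 further: potency for reduction of bacterial viability or growth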
[13] = tested on: Streptococcus sp. 'group A'; assay: Streptococcus pyogenes SK(-)GAS viability under kanamycin – luminescence, BacTiterGlo, confirmation, counter-screen for streptokinase expression inhibitor project, dose response (AID 1900); assay type: functional, organism-based

T1 sequence (Q9HC29 whole entry, the tested form may be a part): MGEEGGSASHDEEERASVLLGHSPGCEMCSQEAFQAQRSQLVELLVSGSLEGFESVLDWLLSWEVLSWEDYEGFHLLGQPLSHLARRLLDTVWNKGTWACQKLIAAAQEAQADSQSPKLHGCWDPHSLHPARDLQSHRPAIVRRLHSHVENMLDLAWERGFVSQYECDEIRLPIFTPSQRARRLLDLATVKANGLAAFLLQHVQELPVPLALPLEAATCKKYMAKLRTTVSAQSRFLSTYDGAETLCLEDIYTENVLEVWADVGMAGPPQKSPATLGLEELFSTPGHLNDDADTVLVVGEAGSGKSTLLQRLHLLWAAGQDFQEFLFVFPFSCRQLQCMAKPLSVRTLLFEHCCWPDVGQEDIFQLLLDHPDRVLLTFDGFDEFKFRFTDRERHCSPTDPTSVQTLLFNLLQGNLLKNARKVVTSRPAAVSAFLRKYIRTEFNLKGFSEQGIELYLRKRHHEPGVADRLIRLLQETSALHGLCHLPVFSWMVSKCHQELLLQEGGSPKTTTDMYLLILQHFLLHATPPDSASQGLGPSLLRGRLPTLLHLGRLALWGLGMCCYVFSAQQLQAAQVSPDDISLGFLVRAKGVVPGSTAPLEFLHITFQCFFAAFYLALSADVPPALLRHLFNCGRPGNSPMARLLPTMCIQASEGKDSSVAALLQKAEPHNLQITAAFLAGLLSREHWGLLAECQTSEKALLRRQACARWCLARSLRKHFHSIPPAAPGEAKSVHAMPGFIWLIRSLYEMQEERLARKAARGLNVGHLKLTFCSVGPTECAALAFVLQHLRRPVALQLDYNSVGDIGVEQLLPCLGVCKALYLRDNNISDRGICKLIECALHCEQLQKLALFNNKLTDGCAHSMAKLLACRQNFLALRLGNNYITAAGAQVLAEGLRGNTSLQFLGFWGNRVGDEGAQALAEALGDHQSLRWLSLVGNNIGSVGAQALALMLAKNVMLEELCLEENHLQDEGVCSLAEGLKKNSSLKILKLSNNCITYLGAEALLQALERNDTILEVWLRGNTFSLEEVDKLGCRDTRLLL
T3 sequence (P98170 whole entry, the tested form may be a part): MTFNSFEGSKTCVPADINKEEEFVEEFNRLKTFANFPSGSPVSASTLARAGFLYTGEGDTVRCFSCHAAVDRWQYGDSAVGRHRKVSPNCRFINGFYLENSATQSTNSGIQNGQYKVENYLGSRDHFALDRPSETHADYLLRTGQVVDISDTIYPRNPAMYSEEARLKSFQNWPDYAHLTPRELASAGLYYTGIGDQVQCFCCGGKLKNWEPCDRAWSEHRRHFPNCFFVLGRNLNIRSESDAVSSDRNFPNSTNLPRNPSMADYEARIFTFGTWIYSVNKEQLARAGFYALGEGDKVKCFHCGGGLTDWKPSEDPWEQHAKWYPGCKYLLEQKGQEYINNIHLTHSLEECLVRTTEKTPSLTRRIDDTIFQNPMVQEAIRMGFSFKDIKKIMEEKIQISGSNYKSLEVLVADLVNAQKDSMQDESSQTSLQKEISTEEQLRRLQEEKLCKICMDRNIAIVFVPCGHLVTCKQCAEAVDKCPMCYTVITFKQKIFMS
Tumor necrosis factor, sequence (P01375 whole entry): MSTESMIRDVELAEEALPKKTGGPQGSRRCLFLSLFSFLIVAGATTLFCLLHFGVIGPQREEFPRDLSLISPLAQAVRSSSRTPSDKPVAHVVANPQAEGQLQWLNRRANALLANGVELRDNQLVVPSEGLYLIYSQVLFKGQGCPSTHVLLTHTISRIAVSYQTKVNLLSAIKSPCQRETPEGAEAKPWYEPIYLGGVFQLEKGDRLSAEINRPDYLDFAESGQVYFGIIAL
Nucleotide-binding oligomerization domain-containing protein 1, sequence (Q9Y239 whole entry, the tested form may be a part): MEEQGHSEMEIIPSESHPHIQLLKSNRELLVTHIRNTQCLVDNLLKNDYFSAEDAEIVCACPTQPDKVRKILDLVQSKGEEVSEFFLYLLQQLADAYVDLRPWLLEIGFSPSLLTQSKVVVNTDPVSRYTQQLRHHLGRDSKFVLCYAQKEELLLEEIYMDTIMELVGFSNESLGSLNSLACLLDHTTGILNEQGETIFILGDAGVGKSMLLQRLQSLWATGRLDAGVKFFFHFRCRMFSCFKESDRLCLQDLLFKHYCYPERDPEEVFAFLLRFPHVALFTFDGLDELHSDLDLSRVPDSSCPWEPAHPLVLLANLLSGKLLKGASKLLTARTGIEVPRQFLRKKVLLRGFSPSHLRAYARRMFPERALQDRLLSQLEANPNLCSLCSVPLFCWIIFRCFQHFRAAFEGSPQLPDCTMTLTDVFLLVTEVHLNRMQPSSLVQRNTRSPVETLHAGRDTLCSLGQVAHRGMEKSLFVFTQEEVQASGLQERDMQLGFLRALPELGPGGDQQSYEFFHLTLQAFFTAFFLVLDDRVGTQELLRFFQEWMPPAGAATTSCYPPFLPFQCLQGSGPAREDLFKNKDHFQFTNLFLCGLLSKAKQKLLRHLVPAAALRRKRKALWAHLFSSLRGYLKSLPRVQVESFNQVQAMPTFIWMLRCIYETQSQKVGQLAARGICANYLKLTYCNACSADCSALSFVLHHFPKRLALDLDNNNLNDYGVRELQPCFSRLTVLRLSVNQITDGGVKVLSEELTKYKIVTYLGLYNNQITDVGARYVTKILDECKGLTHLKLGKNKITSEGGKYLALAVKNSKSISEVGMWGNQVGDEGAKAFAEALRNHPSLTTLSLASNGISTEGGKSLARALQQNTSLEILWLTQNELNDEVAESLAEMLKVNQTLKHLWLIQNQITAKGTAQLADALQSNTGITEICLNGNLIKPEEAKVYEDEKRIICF

Row | Compound | IC50 (HEK293 [4]) | IC50 [6] | IC50 [8] | IC50 (Tumor necrosis factor) | IC50 [10] | IC50 [12] | other results
1 | O=C(c1ccc(S(=O)(=O)N2CCCCC2)cc1)N1CCN(CCN2C(=O)c3cccc4cccc(c34)C2=O)CC1 | > 20 µM (inactive) | 6.08 µM (active) | 6.79 µM (active) | 5.55 µM (active) |  |  | IC50 (HEK293 [1]): > 20 µM (inactive); IC50 (HEK293 [2]): > 20 µM (inactive); EC50 (HEK293 [3]): > 20 µM (inactive); EC50 [5]: > 20 µM (inactive); IC50 (HEK293 [7]): 6.57 µM (active); IC50 (HEK293 [9]): 8.84 µM (active)
2 | Clc1cc(CSc2ccccc2)nc(-c2ccccc2)n1 |  |  |  |  | > 100 µM (not active) | > 100 µM (inactive) | EC50 (Streptokinase A): 33.8 µM (active); IC50 [11]: 14.1 µM (active); EC50 (Streptococcus): > 150 µM (not active); EC50 [13]: > 150 µM (not active)
3 | COC(=O)c1ccc(C(=O)NC(=S)Nc2nc3c(s2)CCCC3)cc1 |  |  |  |  | > 100 µM (not active) | > 100 µM (inactive) | 
4 | O=C(Nc1nc2ccccc2n1Cc1ccccc1Cl)c1ccc(Cl)cc1 | > 20 µM (inactive) | > 20 µM (inactive) | > 20 µM (inactive) | > 20 µM (inactive) |  |  | 
